Data: ChEMBL document CHEMBL4417631, “Oral peptide inhibitors of interleukin-23 receptor and their use to treat inflammatory bowel diseases” (2017)
Activity calls are given as the source filed them. No cut-off for these calls is given here. Where a SMILES comes first, the peptide text is derived from it.

Assays:
Interleukin-23 receptor [1] = target: T1, Interleukin-23 receptor (Homo sapiens, UniProt Q5VWK5); assay: Inhibition of interleukin-23 receptor in human DB cells assessed as reduction in IL-23-stimulated STAT3 phosphorylation incubated for 30 mins by HTRF assay; assay type: cell-based
T1 sequence (Q5VWK5 whole entry): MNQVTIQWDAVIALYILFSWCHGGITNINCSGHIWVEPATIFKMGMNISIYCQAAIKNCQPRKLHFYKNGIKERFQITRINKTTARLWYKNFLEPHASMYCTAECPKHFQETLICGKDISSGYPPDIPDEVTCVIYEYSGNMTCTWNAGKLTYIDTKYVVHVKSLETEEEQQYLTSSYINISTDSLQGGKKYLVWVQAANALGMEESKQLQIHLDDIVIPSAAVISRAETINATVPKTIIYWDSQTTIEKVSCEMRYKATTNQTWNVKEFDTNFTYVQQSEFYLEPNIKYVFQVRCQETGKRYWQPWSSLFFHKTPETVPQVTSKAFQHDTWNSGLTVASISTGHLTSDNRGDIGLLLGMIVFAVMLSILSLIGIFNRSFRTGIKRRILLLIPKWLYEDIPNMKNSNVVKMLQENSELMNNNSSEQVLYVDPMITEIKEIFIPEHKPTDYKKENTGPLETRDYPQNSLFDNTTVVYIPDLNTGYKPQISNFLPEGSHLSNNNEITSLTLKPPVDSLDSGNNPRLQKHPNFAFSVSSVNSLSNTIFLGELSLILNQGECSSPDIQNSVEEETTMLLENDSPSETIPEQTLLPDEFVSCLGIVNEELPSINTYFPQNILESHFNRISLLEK

[2] = Half life in DTT at 50 uM up up to 120 mins by reverse phase HPLC and UV detection based assay; assay type: physicochemical
Interleukin-23 receptor [3] = target: T1, Interleukin-23 receptor; assay: Inhibition of interleukin-23 binding to human interleukin-23 receptor incubated for 2 hrs by competitive binding ELISA
[4] = Inhibition of interleukin-23 binding to rat interleukin-23 receptor incubated for 2 hrs by competitive binding ELISA
[5] = Half life in simulated intestinal fluid at 20 uM by LC-MS/MS analysis; assay type: ADME
[6] = Half life in simulated gastric fluid at 20 uM by LC-MS/MS analysis; assay type: ADME
Rattus norvegicus = assay: Anti-colitis activity in Sprague-Dawley rat model of DSS-induced colitis assessed as reduction in disease activity index at 100 mg/kg, po qd for 9 days; assay type: functional, organism-based
[7] = Inhibition of interleukin-23 binding to cynomolgus monkey interleukin-23 receptor incubated for 2 hrs by competitive binding ELISA; design: species or system Macaca fascicularis
Interleukin-23 receptor [8] = target: T2, Interleukin-23 receptor (Mus musculus, UniProt Q8K4B4); assay: Inhibition of interleukin-23 binding to mouse interleukin-23 receptor incubated for 2 hrs by competitive binding ELISA
T2 sequence (Q8K4B4 whole entry): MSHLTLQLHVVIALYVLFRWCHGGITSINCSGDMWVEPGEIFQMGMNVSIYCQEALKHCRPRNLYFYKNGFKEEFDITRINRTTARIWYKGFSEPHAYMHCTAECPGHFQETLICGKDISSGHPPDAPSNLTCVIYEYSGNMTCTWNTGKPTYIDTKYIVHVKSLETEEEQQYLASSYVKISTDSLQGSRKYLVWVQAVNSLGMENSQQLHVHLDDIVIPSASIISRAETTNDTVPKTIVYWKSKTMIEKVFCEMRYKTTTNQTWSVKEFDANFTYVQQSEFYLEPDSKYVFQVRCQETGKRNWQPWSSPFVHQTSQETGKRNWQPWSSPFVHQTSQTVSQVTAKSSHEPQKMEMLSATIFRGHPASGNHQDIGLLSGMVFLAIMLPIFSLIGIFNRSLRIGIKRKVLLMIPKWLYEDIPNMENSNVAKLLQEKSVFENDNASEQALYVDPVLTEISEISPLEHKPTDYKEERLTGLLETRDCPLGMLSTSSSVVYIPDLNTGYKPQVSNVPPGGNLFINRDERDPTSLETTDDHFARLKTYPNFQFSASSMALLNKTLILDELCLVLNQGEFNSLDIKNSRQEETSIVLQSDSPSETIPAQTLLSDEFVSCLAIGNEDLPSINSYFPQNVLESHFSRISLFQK

Interleukin-23 receptor [9] = target: T1, Interleukin-23 receptor; assay: Inhibition of interleukin-23 receptor in human natural killer cells assessed as reduction in IL23/IL18-induced IFNgamma production incubated for 20 to 24 hrs by ELISA; assay type: cell-based

IC50 (Interleukin-23 receptor [1])	half-life at 50 µM [2]	IC50 (Interleukin-23 receptor [3])	IC50 [4]	half-life at 20 µM [5]	half-life at 20 µM [6]	IC50 [7]	IC50 (Interleukin-23 receptor [8])	Compound	Activity (Rattus norvegicus)	IC50 (Interleukin-23 receptor [9])
0.01 to 0.025 µM	> 2 h	0.025 to 0.1 µM	0.1 to 1 µM	3 to 6 h				CC(=O)N[C@H](C(=O)N[C@@H](CCC(N)=O)C(=O)N[C@H](C(=O)N[C@@H](Cc1c[nH]c2ccccc12)C(=O)N[C@@H](CCC(N)=O)C(=O)N[C@H](C(=O)N[C@@H](Cc1ccc(O)cc1)C(=O)N[C@@H](Cc1c[nH]c2ccccc12)C(=O)N[C@@](C)(CC(C)C)C(=O)N[C@@H](CCC(=O)O)C(=O)N[C@@H](CC(N)=O)C(=O)NCC(N)=O)C(C)(C)S)[C@@H](C)O)C(C)(C)S		
	0.167 to 2 h							CC(=O)N[C@@H](CS)C(=O)N[C@@H](C)C(=O)N[C@@H](CC(=O)O)C(=O)N[C@@H](Cc1c[nH]c2ccccc12)C(=O)N[C@H](C(=O)N[C@@H](Cc1c[nH]c2ccccc12)C(=O)N[C@@H](CS)C(=O)N[C@@H](Cc1ccc(O)cc1)C(=O)N[C@@H](Cc1c[nH]c2ccccc12)C(=O)N[C@@H](Cc1cnc[nH]1)C(=O)N[C@H](C(=O)N[C@@H](Cc1ccccc1)C(=O)NCC(=O)N[C@@H](C)C(=O)N1CC[C@H]1C(=O)N[C@H](CCCCN)C(N)=O)[C@@H](C)O)C(C)C		
0.01 to 0.025 µM	> 2 h	0.025 to 0.1 µM	0.1 to 1 µM	3 to 6 h	2 to 3 h			COc1ccc(C[C@H](NC(=O)[C@@H](NC(=O)[C@H](CCC(N)=O)NC(=O)[C@H](Cc2c[nH]c3ccccc23)NC(=O)[C@@H](NC(=O)[C@H](CCC(N)=O)NC(=O)[C@@H](NC(C)=O)C(C)(C)S)[C@@H](C)O)C(C)(C)S)C(=O)N[C@@H](Cc2ccc3ccccc3c2)C(=O)N[C@@](C)(CCCCN)C(=O)N[C@@H](CCC(=O)O)C(=O)N[C@@H](CC(N)=O)C(=O)NCC(N)=O)cc1		
	0.167 to 2 h							CC(=O)N[C@@H](CS)C(=O)N[C@@H](CCC(N)=O)C(=O)N[C@H](C(=O)N[C@@H](Cc1c[nH]c2ccccc12)C(=O)N[C@@H](CCC(N)=O)C(=O)N[C@@H](CS)C(=O)N[C@@H](Cc1ccc(O)cc1)C(=O)N[C@@H](Cc1c[nH]c2ccccc12)C(=O)N[C@@H](CCC(C)C)C(=O)N[C@@H](CCC(=O)O)C(=O)N[C@@H](CC(N)=O)C(=O)NCC(N)=O)[C@@H](C)O		
								O=C(O)c1cc(/N=N/c2ccc(S(=O)(=O)Nc3ccccn3)cc2)ccc1O	Active	
1 to 10 µM		0.025 to 10 µM	1 to 10 µM			1 to 10 µM	> 25 µM	CC(=O)N[C@@H](CS)C(=O)N[C@@H](CCC(N)=O)C(=O)N[C@H](C(=O)N[C@@H](Cc1c[nH]c2ccccc12)C(=O)N[C@@H](CCC(N)=O)C(=O)N[C@@H](CS)C(=O)N[C@@H](Cc1ccc(O)cc1)C(=O)N[C@@H](Cc1c[nH]c2ccccc12)C(=O)N[C@@H](CCCNC(N)=O)C(=O)N[C@@H](CN)C(=O)N[C@@H](Cc1ccccc1)C(=O)NCC(=O)NCCOCC(=O)N[C@H](CCCCN)C(N)=O)[C@@H](C)O		
	> 2 h	0.1 to 1 µM		< 1 h				CC(=O)N[C@H](C(=O)N[C@@H](CCC(N)=O)C(=O)N[C@H](C(=O)N[C@@H](Cc1c[nH]c2ccccc12)C(=O)N[C@@H](CCC(N)=O)C(=O)N[C@H](C(=O)N[C@@H](Cc1ccc(O)cc1)C(=O)N[C@@H](Cc1c[nH]c2ccccc12)C(=O)N[C@@H](CCC(C)C)C(=O)N[C@@H](CCC(=O)O)C(=O)N[C@@H](CC(N)=O)C(=O)NCC(N)=O)C(C)(C)S)[C@@H](C)O)C(C)(C)S		
< 0.01 µM		< 0.01 µM	0.01 to 0.025 µM	1 to 2 h	< 1 h			CC(=O)NCCCC[C@H](NC(=O)C(C)(C)NC(=O)[C@H](Cc1ccc2ccccc2c1)NC(=O)[C@H](Cc1ccc(OCCN)cc1)NC(=O)[C@@H]1CSCC[C@H](NC(C)=O)C(=O)N[C@@H](CCC(N)=O)C(=O)N[C@@H]([C@@H](C)O)C(=O)N[C@@H](Cc2c[nH]c3ccccc23)C(=O)N[C@@H](CCC(N)=O)C(=O)N1)C(=O)N[C@@H](CC(N)=O)C(=O)N[C@@H](C)C(N)=O		< 0.025 µM
0.1 to 1 µM		0.1 to 1 µM	0.251 to 1 µM			1 to 10 µM	> 25 µM	CC(C)[C@H](NC(=O)[C@H](Cc1c[nH]c2ccccc12)NC(=O)[C@H](CC(=O)O)NC(=O)[C@H](C)NC(=O)[C@@H](N)CS)C(=O)N[C@@H](CS)C(=O)N[C@@H](Cc1ccc(O)cc1)C(=O)N[C@@H](Cc1c[nH]c2ccccc12)C(=O)N[C@@H](Cc1cnc[nH]1)C(=O)N[C@H](C(=O)N[C@@H](Cc1ccccc1)C(=O)NCC(N)=O)[C@@H](C)O		
0.025 to 0.1 µM	> 2 h	0.025 to 0.1 µM	0.1 to 1 µM	< 1 h				CC(=O)N[C@H]1CCSC[C@@H](C(=O)N[C@@H](Cc2ccc(O)cc2)C(=O)N[C@@H](Cc2c[nH]c3ccccc23)C(=O)N[C@@H](CCCNC(=N)N)C(=O)N[C@@H](CCCCN)C(=O)N[C@@H](Cc2ccccc2)C(=O)NCC(=O)NCCOCC(=O)N[C@H](CCCCN)C(N)=O)NC(=O)[C@H](CCC(N)=O)NC(=O)[C@H](Cc2c[nH]c3ccccc23)NC(=O)[C@H]([C@@H](C)O)NC(=O)[C@H](CCCNC(=N)N)NC1=O		
	> 2 h							CC(=O)N[C@H]1CCSC[C@@H](C(=O)N[C@@H](Cc2ccc(OCCN)cc2)C(=O)N[C@@H](Cc2ccc3ccccc3c2)C(=O)NC2(C(=O)N[C@@H](CCC(=O)O)C(=O)N[C@@H](CC(N)=O)C(=O)N[C@@H](CC(N)=O)C(N)=O)CCOCC2)NC(=O)[C@H](CCC(N)=O)NC(=O)[C@H](Cc2c[nH]c3ccccc23)NC(=O)[C@H]([C@@H](C)O)NC(=O)[C@H](CCC(N)=O)NC1=O		
	< 0.167 h	< 0.5 µM						CC(=O)N[C@@H](CS)C(=O)N[C@@H](CCCNC(=N)N)C(=O)N[C@H](C(=O)N[C@@H](Cc1c[nH]c2ccccc12)C(=O)N[C@@H](CCC(=O)O)C(=O)N[C@@H](CS)C(=O)N[C@@H](Cc1ccc(O)cc1)C(=O)N[C@@H](Cc1c[nH]c2ccccc12)C(=O)N[C@@H](Cc1cnc[nH]1)C(=O)N[C@@H](CCC(=O)O)C(=O)N[C@@H](Cc1ccccc1)C(=O)NCC(N)=O)[C@@H](C)O (Ac-CRTWECYWHEFG-NH2)		
		0.251 to 1 µM	0.251 to 1 µM				> 25 µM	N=C(N)NCCC[C@H](NC(=O)[C@@H](N)CS)C(=O)N[C@@H](CC(=O)O)C(=O)N[C@@H](Cc1c[nH]c2ccccc12)C(=O)N[C@@H](CCC(N)=O)C(=O)N[C@@H](CS)C(=O)N[C@@H](Cc1ccc(O)cc1)C(=O)N[C@@H](Cc1c[nH]c2ccccc12)C(=O)N[C@@H](Cc1cnc[nH]1)C(=O)N[C@@H](CCCCN)C(=O)N[C@@H](Cc1ccccc1)C(=O)NCC(N)=O (H-CRDWQCYWHKFG-NH2)		
< 0.01 µM		< 0.01 µM	< 0.01 µM	2 to 3 h	3 to 6 h			CC(=O)NCCCC[C@H](NC(=O)[C@](C)(CC(C)C)NC(=O)[C@H](Cc1ccc2ccccc2c1)NC(=O)[C@H](Cc1ccc(OCCN)cc1)NC(=O)[C@@H](NC(=O)[C@H](CCC(N)=O)NC(=O)[C@H](Cc1c[nH]c2ccccc12)NC(=O)[C@@H](NC(=O)[C@H](CCC(N)=O)NC(=O)[C@@H](NC(C)=O)C(C)(C)S)[C@@H](C)O)C(C)(C)S)C(=O)N[C@@H](CC(N)=O)C(=O)N[C@@H](CC(N)=O)C(N)=O		< 0.01 µM
